From patent publication US20010047027A1, “Prostaglandin D2 receptor antagonists” (priority 2000, published 2001) come the findings set out here.

In this experiment the target is T1, prostanoid DP receptor (prostaglandin D receptor) (Homo sapiens, UniProt Q13258).
T1 construct: expressed in transfected cells; host or cells: HEK293(EBNA) cells; membranes, 160,000 x g fraction
T1 sequence (Q13258 1-359): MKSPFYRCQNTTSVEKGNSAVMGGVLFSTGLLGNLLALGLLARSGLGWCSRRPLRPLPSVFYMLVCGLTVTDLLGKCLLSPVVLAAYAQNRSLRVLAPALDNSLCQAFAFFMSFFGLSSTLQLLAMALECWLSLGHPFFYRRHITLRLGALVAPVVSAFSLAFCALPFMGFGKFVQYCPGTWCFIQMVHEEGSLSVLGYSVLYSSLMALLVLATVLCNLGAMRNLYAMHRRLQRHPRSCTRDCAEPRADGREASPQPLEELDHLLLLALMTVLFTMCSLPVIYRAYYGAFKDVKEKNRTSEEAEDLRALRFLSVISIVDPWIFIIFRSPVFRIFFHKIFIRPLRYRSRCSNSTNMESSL
Description: Radioligand binding assay using membranes from cells that express recombinant prostanoid DP receptor. The note with it: for Ki: membranes of HEK293(EBNA) cells expressing DP, 0.7 nM [3H]PGD2, 60 min at room temperature, n = 5, read-out: Affinity (Ki) for the prostaglandin D receptor; for affinity for the prostaglandin D2 receptor, in words: comparison of the 1R isomers with the other two diastereomers. Here is the method: Radioligand binding assays using membranes from cells that express recombinant prostanoid DP receptor (DP).
Radioligand binding assays are conducted essentially as previously described (Abramovitz et al., Biochem. Biophys. Acta 1483-2, 285-293, 2000). HEK293(EBNA) cells expressing DP are grown in supplemented DMEM complete medium at 37° C. in a humidified atmosphere of 6% CO2 in air, and then harvested. Cells are disrupted by nitrogen cavitation at 800 psi for 30 min. on ice in the presence of protease inhibitors (2 mM phenylmethylsulfonylfluoride, 10 μM E-64, 100 μM leupeptin and 0.05 mg/mL pepstatin). Membranes are prepared by differential centrifugation (1000×g for 10 min, then 160,000×g for 30 min, all at 4° C.). The 160,000×g pellets are resuspended in 10 mM HEPES/KOH (pH 7.4) containing 1 mM EDTA at approximately 5-10 mg/mL protein by Dounce homogenization (Dounce A; 10 strokes), frozen in liquid nitrogen and stored at −80° C. DP receptor binding assays are performed in a final incubation volume of 0.2 mL in 10 mM HEPES/KOH (pH 7.4), containing 1 mM EDTA, 10 mM MnCl2, 0.7 nM [^3H]PGD2 (115-200 Ci/mmol). The reaction was initiated by addition of 30-60 μg membrane protein from the 160,000×g fraction. Test compounds are added in dimethylsulfoxide (Me2SO) at 1% (v/v) in all incubations. Non-specific binding was determined in the presence of 1-10 μM of non-radioactive PGD2. Incubations are conducted for 60 min. at room temperature. Incubations are terminated by rapid filtration at 4° C. Radioactivity bound to the individual filters is determined by scintillation counting. Maximum specific binding is defined as the total binding minus the non-specific binding. Specific binding is determined at each concentration of test compound and is expressed as a percentage of the maximum specific binding. Sigmoidal equilibrium competition curves were constructed by expressing percentage maximum specific binding as a function of ligand concentration and analyzed by a validated custom designed software employing a simplex driven non-linear least-squares curve fitting routine based on a four parameter equation to determine the inflection point concentration (InPt). The corresponding Kivalues were derived from the equation Ki=InPt/1+([radioligand]/KD).

For orientation: Ki means the equilibrium dissociation constant of an inhibitor or competing ligand from its target. Take `C[S+]([O-])c1cccc2c3c(n(Cc4ccc(Cl)cc4)c12)C(CC(=O)O)CCC3` (single isomer, unassigned) [Enantiomer of Ib, reference compound]: the Ki turned out to be 0.072 ± 0.004 µM.
On to `C[S@@+]([O-])c1cccc2c3c(n(Cc4ccc(Cl)cc4)c12)[C@@H](CC(=O)O)CCC3` [Compound Ib, 2-[(1R)-9-(4-chlorobenzyl)-8-((R)-methylsulfinyl)-2,3,4,9-tetrahydro-1H-carbazol-1-yl]acetic acid], for which the “affinity for the prostaglandin D2 receptor, in words” value is “much higher affinity” and the inhibitory constant (Ki) was 0.0021 ± 0.0001 µM.
`C[S+]([O-])c1cccc2c3c(n(Cc4ccc(Cl)cc4)c12)C(CC(=O)O)CCC3` (single isomer, unassigned) [Enantiomer of Ia, reference compound]: the Ki is 0.119 ± 0.039 µM.
Regarding `C[S@+]([O-])c1cccc2c3c(n(Cc4ccc(Cl)cc4)c12)[C@@H](CC(=O)O)CCC3` [Compound Ia, 2-[(1R)-9-(4-chlorobenzyl)-8-((S)-methylsulfinyl)-2,3,4,9-tetrahydro-1H-carbazol-1-yl]acetic acid], the “affinity for the prostaglandin D2 receptor, in words” value is given as “much higher affinity” and the Ki is 0.0017 ± 0.0003 µM.
